Laboratory results as given in PMC8815339 (The Biochemical journal, 2009).
Where two headings read alike, the source gives them in different places.

Experiments:
P. falciparum 3D7-luc = assay: Parasite growth inhibition, luciferase-expressing strain 3D7-luc; assay type: cell-based, Plasmodium falciparum; settings: for IC50: read-out: IC50s for 3D7 growth
rat PRMT1 (rPRMT1) = settings: cited from earlier work
[1] = target: T1, recombinant PfPRMT1 (MBP-PfPRMT1) (Plasmodium falciparum, UniProt Q8ILK1); assay: Inhibition of recombinant PfPRMT1 methylation activity; assay type: biochemical; settings: chaetocin: in the lower micromolar concentration
T1 sequence (Q8ILK1 1-401): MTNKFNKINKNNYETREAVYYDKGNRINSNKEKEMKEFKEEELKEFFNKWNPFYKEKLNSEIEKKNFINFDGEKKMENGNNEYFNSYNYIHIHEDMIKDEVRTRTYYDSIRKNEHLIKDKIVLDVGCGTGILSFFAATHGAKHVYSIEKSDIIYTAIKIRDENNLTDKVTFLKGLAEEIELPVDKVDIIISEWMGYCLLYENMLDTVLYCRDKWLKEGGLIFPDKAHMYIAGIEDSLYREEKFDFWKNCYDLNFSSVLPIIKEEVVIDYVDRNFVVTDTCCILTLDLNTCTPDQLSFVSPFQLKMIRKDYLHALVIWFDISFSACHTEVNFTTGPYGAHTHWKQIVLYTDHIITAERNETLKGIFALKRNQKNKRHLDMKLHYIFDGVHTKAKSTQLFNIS

[2] = late ring-stage parasites, 48 h, 37°C, 2% parasitemia, 2% hematocrit
[3] = Plasmodium falciparum, 3D7, 48 h

Question: For `CSC[C@H]1O[C@@H](n2cnc3c(N)ncnc32)[C@H](O)[C@@H]1O` [5-Deoxy-5-methylthioadenosine (MTA), 5-Deoxy-5-methylthioadenosine], which IC50 (P. falciparum 3D7-luc; [2]) is on record?
Answer: > 100 µM

Question: Which Km (rat PRMT1 (rPRMT1); read-out: Km, rPRMT1, ref [31]) does the source give for `C[S+](CC[C@H](N)C(=O)[O-])C[C@H]1O[C@@H](n2cnc3c(N)ncnc32)[C@H](O)[C@@H]1O` (stereo partly drawn) [AdoMet, S-adenosylmethionine] here?
Answer: 2.52 ± 0.54 µM

Question: And the “kcat, rPRMT1” value (rat PRMT1 (rPRMT1); ref [31])?
Answer: 0.014 ± 0.0005 s⁻¹

Question: What does the source list for `CN1C(=O)[C@@]23C[C@]4([C@]56C[C@@]78SS[C@@](CO)(C(=O)N7[C@H]5Nc5ccccc56)N(C)C8=O)c5ccccc5N[C@@H]4N2C(=O)[C@]1(CO)SS3` [Chaetocin]?
Answer: Inhibition of PfPRMT1 (in words) [1]: no obvious inhibition; IC50 (P. falciparum 3D7-luc; [3]): 14 ± 1.56 µM

Question: With `O=C1OC2(c3ccccc31)c1cc(Br)c(O)c(Br)c1Oc1c2cc(Br)c(O)c1Br` [Eosin Y (AMI-5), Eosin Y] as the molecule, how does the “Inhibition of PfPRMT1 (in words)” value [1] read?
Answer: strong inhibitory activity

Question: What about the IC50 (P. falciparum 3D7-luc; [3]) of the same molecule?
Answer: 14.8 ± 1.01 µM

Question: Which IC50 (P. falciparum 3D7-luc; [3]) does the source give for `Nc1ncnc2c1ncn2[C@@H]1O[C@H](C[C@@H](N)CC[C@H](N)C(=O)O)[C@@H](O)[C@H]1O` [Sinefungin] here?
Answer: 2.71 ± 0.04 µM

Question: And the “IC50s for 3D7 growth” value (P. falciparum 3D7-luc; [2])?
Answer: lower micromolar
